The source of these data is patent US11053258B2, “Pyrimidine carboxamides as GSK-3 inhibitors” (BRISTOL-MYERS SQUIBB COMPANY, priority 2016, dated 2021).

For series [1] the following is noted: from C=CCN1CCN(c2cc(F)ncc2NC(=O)c2ccnc(NCC(C)(O)CC=C)n2)CC1; rcm bond; 18-membered ring; Zhan 1B; ClCH2CH2Cl; 4.5 mM; 70.0 °C; 1.5 h.
The target in the next series is GSK3α (Homo sapiens, UniProt P49840). As to the kind of experiment: GSK3α kinase assay (Caliper LabChip3000, fluoresceinated peptide substrate). The note with it: second value of cell; 250 pM enzyme, 20 uM ATP, 20 hours room temperature; read-out: GSK3β/α (nM): GSK3α IC50. Type of series: biochemical. As to the method: (§1) The kinase assay was performed in V-bottom 384-well plates. The final assay volume was 30 μl prepared from 15 μl additions of enzyme, substrates (fluoresceinated peptide FL-KRREILSRRP[ps]ERYR-NH2 and ATP) and test compounds in assay buffer (100 mM HEPES pH 7.4, 10 mM MgCl2, 25 mM Beta-Glycerolphosphate, 0.015% Brij35 and 0.25 mM DTT). The reaction was incubated at room temperature for 20 hours and terminated by adding 45 μl of 35 mM EDTA to each sample. The reaction mixture was analyzed on the Caliper LabChip3000 (Caliper, Hopkinton, Mass.) by electrophoretic separation of the unphosphorylated substrate and phosphorylated product. Inhibition data were calculated by comparison of the no enzyme control reactions for 100% inhibition and vehicle-only reactions for 0% inhibition. The final concentration of reagents in the assay were 250 pM GSK3α or GSK3β, 20 uM ATP, 1.5 uM FL-KRREILSRRP[ps]ERYR-NH2, and 1.6% DMSO. Dose response curves were generated to determine the concentration required to inhibit 50% of the kinase activity (IC50). Compounds were dissolved at 10 mM in dimethylsulfoxide (DMSO) and evaluated at eleven concentrations. IC50 values were derived by non-linear regression analysis.

For another series, the system named is pTau. The series is described as follows: pTau assay. The class given is cell-based.
For the next series, the target named is GSK3β (Homo sapiens, UniProt P49841). As to the kind of experiment: GSK3β kinase assay (Caliper LabChip3000, fluoresceinated peptide substrate). The class given is biochemical. The note with it: first value of cell; 250 pM enzyme, 20 uM ATP, 20 hours room temperature; read-out: GSK3β/α (nM): GSK3β IC50. The method, then:
as §1

The conditions of series [2]: rcm bond, 70.0 °C.

Values joined by “and” are separate entries in the source; they are usually repeats but may differ in a detail not shown here. Equal values may be shown once. Read-outs that look alike come from different tables or passages of the source.

Sequence of GSK3α (P49840 whole entry, species assumed): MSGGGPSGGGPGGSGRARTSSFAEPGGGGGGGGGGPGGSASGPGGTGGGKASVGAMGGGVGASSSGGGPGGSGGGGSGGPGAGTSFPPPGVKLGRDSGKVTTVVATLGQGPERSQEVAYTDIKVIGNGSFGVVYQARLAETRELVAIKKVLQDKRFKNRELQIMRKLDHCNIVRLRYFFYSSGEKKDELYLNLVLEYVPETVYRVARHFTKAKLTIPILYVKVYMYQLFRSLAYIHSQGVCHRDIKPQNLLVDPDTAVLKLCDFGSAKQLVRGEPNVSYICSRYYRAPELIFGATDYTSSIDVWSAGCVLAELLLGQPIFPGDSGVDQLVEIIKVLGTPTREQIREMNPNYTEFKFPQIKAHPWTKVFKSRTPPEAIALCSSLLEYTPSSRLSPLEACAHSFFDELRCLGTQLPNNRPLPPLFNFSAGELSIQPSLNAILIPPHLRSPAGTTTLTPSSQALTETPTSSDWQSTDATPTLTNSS
Sequence of GSK3β (P49841 whole entry, species assumed): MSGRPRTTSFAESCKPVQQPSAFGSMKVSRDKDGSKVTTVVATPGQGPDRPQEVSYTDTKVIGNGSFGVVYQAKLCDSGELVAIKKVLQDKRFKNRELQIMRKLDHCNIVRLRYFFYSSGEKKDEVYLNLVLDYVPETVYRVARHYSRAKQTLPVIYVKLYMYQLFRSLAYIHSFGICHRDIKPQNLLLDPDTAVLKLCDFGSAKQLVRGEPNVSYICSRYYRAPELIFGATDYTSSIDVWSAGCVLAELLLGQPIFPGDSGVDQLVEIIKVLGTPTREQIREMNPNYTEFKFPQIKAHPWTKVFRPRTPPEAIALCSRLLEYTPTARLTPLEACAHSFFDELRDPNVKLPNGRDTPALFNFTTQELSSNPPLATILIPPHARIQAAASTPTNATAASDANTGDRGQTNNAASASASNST

`CC1(O)CC=CCN2CCN(CC2)c2cc(F)ncc2NC(=O)c2ccnc(n2)NC1` (stereo not shown) showed a ring closure, yield after HPLC in series [1] of 37%.
Turning to `O=C1Nc2cnc(F)cc2N2CCN(CC=CCC(O)C3(CC3)Nc3nccc1n3)CC2` (mixture of isomers) [Example 34, (E)-6′-fluoro-8′-hydroxyspiro[cyclopropane-1,7′-3,6-diaza-5(4,2)-pyrimidina-1(1,4)-piperazina-2(4,3)-pyridinacyclododecaphanen]-10′-en-4′-one], the IC50 at GSK3α came out at 2000 nM; in the series with pTau, 9970 nM; at GSK3β, 1270 nM. This compound also returned a ring closure, isolated yield in series [2] (from C=CCC(O)C1(Nc2nccc(C(=O)Nc3cnc(F)cc3N3CCN(CC=C)CC3)n2)CC1, 18-membered ring, Zhan 1B, 1.5 h) of 54%.
`CC1(O)CC=CCCOc2ccncc2NC(=O)c2ccnc(n2)NC1` (mixture of isomers) [Example 41, (E)-11-Hydroxy-11-methyl-5-oxa-3,13-diaza-1(4,2)-pyrimidina-4(3,4)-pyridinacyclotridecaphan-8-en-2-one]: the IC50 was found to be 4.7 nM at GSK3α, 266 nM in the series on pTau and 2.7 nM at GSK3β. Moreover, in series [2] (from C=CCCOc1ccncc1NC(=O)c1ccnc(NCC(C)(O)CC=C)n1, 16-membered ring, Zhan 1B, ClCH2CH2Cl, 4.33 mM, 1.5 h), the ring closure, isolated yield turned out to be 39%.
Consider `O=C1Nc2cnc(F)cc2N2CCN(CC=CCCC(O)CNc3nccc1n3)CC2` (single isomer, unassigned) [Example 28, (E)-2^6-fluoro-8-hydroxy-3,6-diaza-5(4,2)-pyrimidina-1(1,4)-piperazina-2(4,3)-pyridinacyclotridecaphan-11-en-4-one], for which the IC50 on GSK3α came out at 17.5 nM; in the series with pTau it was 1870 nM; at GSK3β, 14.7 nM. The ring closure, isolated yield in series [2] (from C=CCCC(O)CNc1nccc(C(=O)Nc2cnc(F)cc2N2CCN(CC=C)CC2)n1, 19-membered ring, Zhan 1B (30 mol%), ClCH2CH2Cl, 5.17 mM, 3.0 h) was 22% and 13%.
